We go through four compounds from publication PMC10861852, “Loss of activation by GABA in vertebrate delta ionotropic glutamate receptors” (Proceedings of the National Academy of Sciences of the …, 2024).

One assay deals with T1, AcaGluD (Acanthaster planci, UniProt A0A8B7XXR5).
T1 sequence (A0A8B7XXR5 24-958): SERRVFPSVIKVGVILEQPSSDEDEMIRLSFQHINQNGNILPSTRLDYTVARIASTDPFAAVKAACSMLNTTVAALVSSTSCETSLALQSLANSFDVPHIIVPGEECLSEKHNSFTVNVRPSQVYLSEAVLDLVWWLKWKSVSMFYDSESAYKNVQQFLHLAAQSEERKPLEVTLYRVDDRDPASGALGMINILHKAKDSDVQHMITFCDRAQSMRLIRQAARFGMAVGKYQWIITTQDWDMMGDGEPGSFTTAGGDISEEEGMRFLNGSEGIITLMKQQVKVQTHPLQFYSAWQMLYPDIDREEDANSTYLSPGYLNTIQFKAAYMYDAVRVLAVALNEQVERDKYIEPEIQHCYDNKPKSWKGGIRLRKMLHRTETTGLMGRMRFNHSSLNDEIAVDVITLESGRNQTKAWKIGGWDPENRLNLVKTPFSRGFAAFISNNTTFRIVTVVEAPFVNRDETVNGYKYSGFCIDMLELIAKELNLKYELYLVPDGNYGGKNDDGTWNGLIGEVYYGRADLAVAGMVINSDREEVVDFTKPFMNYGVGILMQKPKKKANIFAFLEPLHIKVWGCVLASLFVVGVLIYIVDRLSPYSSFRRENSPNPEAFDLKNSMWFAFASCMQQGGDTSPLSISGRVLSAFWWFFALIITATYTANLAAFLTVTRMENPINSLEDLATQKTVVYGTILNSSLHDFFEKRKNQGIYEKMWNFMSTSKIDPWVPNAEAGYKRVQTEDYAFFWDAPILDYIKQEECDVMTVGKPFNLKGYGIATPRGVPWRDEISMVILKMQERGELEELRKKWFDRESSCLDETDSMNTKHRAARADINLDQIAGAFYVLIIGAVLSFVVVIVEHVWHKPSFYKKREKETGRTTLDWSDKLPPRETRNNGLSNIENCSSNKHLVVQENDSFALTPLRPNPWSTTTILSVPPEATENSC
Put plainly: Two-electrode voltage clamp, ligand-gated currents in oocytes. Type of assay: cell-based. Conditions: for inhibition of GABA-gated current: coapplied with ~EC30 GABA concentration. A general note: Two-electrode voltage clamp is typically applied to oocytes expressing channels or transporters.

The target in a further assay is T2, RatGluD2^Lc^-9x (Rattus norvegicus, UniProt Q63226, A654T/A686S/D753Q/K694R/N720P/N763K/P806D/Q786M/R787V/Y613F).
T2 construct: expressed in transfected cells; host or cells: Xenopus laevis oocytes injected with mRNA
Put plainly: Two-electrode voltage clamp, responses to ligands in mutant-expressing oocytes. The assay is classed as cell-based. Conditions: pentamidine 100 μM. The source says:
If the 10 mutations discussed above drove the loss of function in vertebrate delta iGluRs, one might expect that the latter could be “reawakened” via active invertebrate delta iGluR-like mutations here. We therefore engineered mutant RatGluD2 iGluRs to contain at these positions the equivalent residues from starfish delta iGluRs. These mutants were RatGluD2^5x, containing Y613F, A686S, K694R, N720P, and P806D substitutions (pink in Fig. 6A), and RatGluD2^9x, additionally containing N763K, D753Q, Q786M, and R787V (cyan in Fig. 6A).
Fig. 6. AcaGluD-like mutations alter RatGluD2 receptor function. (A) D-serine bound RatGluD2 from X-ray structure PDB:2v3u ([13]). Selected amino acid residues are indicated, colored, shown as sticks, and labeled 5×, 9×, 10×, and/or Lc according to the multiple mutants they were incorporated into. 10× mutant included 10×, 9×, and 5× positions. 9× included 9× and 5×. 5× included only 5×. […] (B–E) Example current responses to different neurotransmitter ligands (30 mM) and to pore blocker pentamidine (Pent, 100 μM) in oocytes expressing indicated RatGluD2 mutants. The dashed line indicates zero current baseline. (F) Individual (dots) and mean (columns) responses to ligands in oocytes expressing indicated RatGluD2 mutants (n = 4 to 5).

The target of another assay is RatGluA2 AMPA receptors (Rattus norvegicus, UniProt P19491). The assay can be described thus: Two-electrode voltage clamp, glutamate-gated current in oocytes expressing RatGluA2 and human TARPγ2. The assay is classed as cell-based. To be noted: n = 5. From the text: (dots) and resulting means (columns).
For a further assay, the target named is T3, RatGluD2^Lc (Rattus norvegicus, UniProt Q63226, A654T).
T3 sequence (Q63226 24-1007 A654T): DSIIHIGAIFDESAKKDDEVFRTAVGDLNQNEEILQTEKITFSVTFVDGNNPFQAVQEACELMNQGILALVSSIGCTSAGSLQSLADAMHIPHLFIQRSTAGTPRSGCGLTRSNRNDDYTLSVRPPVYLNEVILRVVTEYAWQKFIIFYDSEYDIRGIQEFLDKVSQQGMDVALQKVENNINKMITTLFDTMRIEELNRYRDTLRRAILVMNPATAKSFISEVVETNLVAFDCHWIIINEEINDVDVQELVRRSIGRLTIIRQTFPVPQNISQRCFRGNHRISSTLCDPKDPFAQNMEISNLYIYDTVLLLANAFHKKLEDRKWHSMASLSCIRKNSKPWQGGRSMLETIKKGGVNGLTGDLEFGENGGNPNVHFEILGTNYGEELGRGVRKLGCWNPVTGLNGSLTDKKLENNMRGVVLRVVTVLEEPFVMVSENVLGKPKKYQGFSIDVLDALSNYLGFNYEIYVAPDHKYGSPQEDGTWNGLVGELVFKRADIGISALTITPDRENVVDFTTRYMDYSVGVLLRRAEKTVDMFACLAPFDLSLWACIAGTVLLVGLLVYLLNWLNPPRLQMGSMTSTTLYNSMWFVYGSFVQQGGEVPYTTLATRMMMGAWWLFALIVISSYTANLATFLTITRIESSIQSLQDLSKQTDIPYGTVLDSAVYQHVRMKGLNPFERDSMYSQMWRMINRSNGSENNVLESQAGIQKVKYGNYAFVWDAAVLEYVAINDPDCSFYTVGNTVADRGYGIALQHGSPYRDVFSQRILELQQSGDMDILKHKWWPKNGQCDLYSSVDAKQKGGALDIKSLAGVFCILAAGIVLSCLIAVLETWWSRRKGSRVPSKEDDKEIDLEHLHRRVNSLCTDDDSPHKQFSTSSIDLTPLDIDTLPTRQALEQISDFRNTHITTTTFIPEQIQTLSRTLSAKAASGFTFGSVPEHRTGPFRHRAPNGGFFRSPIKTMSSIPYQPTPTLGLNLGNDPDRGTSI
Put plainly: Two-electrode voltage clamp, inhibition of constitutive current in oocytes. Conditions: each n = 4.

The target in a further assay is T4, WT RatGluD2 (Rattus norvegicus, UniProt Q63226).
T4 construct: expressed in transfected cells; host or cells: Xenopus laevis oocytes injected with mRNA
T4 sequence (Q63226 24-1007): T3 sequence (Q63226 24-1007 A654T) with T631A
Put plainly: Two-electrode voltage clamp in oocytes. Type of assay: cell-based. To be noted: n = 4.

The subject of a further assay is S713A AcaGluD. Put plainly: Two-electrode voltage clamp, GABA-gated current before/after concanavalin A treatment. The assay is classed as cell-based, Acanthaster planci. To be noted: concanavalin A 10 μM, 30 mM GABA. From the text:
(§1) Fig. 5. RatGluD2-like substitutions impair the ligand-gated activity of AcaGluD receptors. (A) Ligand-gated currents in oocytes expressing indicated mutant AcaGluD receptors or uninjected oocytes. (B) Maximum current amplitude (“Imax”, Upper) and relative ligand-gated current amplitude (“I/Imax”, Lower) and at wild-type (WT) and mutant AcaGluD receptors (mean ± SEM, n = 3 to 5). (C) Immunolabeling c-Myc tag in AcaGluD C-terminal. Upper, example micropgraphs. Lower, […] fluorescence units (RFU) plotted against relative radial distance, peaking at the oocyte surface. White scale bars, 100 μm. (D) AlphaFold model of two adjacent AcaGluD LBDs (rear LBD faded). Selected amino acid residues colored and shown as sticks. Magenta, drastic loss of function; cyan, moderate loss of function. […] (E) Upper, example, and Lower, summarized current responses to 30 mM GABA (“IGABA”) in WT or mutant AcaGluD-expressing oocytes before or after treatment with concanavalin A (“ConA”, 10 μM).

The test system of the next assay is D825P AcaGluD. The assay is described as above. Type of assay: cell-based, Acanthaster planci. To be noted: concanavalin A 10 μM, 30 mM GABA.
Text: as §1

The test system of the next assay is R721K AcaGluD. Described as above. Type of assay: cell-based, Acanthaster planci. Conditions: concanavalin A 10 μM, 30 mM GABA.
Text: as §1

Another assay concerns F640Y AcaGluD. The description is as above. Type of assay: cell-based, Acanthaster planci. Conditions: concanavalin A 10 μM, 30 mM GABA.
Text: as §1

Substitutions are numbered along the chain they refer to. Like-named read-outs stand apart in the source and are kept apart here.

T2 sequence (Q63226 24-1007 Y613F/A654T/A686S/K694R/N720P/D753Q/N763K/Q786M/R787V/P806D): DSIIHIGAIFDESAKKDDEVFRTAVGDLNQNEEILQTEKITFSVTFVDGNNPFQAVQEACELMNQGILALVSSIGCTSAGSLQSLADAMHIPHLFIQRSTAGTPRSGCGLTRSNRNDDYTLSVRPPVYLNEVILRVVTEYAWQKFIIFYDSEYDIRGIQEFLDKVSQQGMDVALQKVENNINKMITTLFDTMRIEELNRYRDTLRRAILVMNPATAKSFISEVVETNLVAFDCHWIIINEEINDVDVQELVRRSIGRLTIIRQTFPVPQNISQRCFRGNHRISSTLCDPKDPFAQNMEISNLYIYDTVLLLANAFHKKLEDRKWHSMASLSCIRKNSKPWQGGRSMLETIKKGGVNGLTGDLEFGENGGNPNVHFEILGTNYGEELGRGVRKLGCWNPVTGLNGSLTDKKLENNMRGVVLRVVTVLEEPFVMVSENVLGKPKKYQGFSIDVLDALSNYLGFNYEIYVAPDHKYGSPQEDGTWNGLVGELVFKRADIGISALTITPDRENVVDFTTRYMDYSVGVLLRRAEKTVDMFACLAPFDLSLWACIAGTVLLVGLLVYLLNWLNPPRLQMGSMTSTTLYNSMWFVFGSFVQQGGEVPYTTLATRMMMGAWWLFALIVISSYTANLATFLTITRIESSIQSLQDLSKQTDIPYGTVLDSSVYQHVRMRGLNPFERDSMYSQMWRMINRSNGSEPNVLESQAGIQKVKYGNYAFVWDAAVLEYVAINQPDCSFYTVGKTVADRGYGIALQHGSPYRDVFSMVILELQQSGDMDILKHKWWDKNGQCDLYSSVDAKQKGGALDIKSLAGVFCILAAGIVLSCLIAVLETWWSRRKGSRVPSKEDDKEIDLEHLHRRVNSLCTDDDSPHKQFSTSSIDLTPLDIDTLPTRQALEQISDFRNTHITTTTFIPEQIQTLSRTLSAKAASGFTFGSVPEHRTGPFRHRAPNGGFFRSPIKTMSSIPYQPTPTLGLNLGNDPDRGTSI
Sequence of RatGluA2 AMPA receptors (P19491 22-883 isoform P19491-2 limits assumed): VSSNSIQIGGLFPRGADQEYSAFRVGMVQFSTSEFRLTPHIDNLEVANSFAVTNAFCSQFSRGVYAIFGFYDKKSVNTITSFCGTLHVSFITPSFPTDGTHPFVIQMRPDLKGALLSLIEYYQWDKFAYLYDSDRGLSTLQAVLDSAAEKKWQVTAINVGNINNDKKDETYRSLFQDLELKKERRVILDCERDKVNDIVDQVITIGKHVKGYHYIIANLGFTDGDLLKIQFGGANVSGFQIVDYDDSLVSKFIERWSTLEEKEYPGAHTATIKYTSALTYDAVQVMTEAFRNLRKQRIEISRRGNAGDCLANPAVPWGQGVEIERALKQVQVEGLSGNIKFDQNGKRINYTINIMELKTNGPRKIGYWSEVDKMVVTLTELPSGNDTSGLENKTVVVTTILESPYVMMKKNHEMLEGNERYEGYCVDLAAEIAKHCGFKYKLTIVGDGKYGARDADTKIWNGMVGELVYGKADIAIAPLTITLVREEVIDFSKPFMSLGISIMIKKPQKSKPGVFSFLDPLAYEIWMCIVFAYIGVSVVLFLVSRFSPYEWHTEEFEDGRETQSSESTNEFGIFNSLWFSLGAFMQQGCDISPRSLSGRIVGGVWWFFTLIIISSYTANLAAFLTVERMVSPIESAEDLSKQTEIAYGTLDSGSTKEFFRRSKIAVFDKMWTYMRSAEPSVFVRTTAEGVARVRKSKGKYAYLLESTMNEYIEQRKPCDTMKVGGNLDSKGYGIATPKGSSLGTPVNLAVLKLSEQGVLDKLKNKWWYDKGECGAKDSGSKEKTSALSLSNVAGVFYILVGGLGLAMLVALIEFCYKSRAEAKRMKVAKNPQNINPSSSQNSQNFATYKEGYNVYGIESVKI
Sequence of RatGluA2 AMPA receptors (Q9Y698 whole entry partner): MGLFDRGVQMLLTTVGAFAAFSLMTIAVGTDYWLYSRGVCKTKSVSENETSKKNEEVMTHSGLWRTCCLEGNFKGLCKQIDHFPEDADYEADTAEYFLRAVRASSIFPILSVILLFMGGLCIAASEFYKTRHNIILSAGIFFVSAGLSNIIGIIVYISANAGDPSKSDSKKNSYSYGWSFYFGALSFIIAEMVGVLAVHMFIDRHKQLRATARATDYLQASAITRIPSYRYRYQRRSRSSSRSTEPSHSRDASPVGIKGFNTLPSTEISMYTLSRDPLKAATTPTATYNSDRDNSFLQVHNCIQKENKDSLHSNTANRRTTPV

With `N=C(N)c1ccc(OCCCCCOc2ccc(C(=N)N)cc2)cc1` [pentamidine], the inhibition at 100 µM on AcaGluD (100 μM, n = 5, read-out: block of GABA-gated current) came out at 68 ± 5%; on AcaGluD (100 µM, n = 7, read-out: block of glutamate-gated current), 78 ± 2%; on RatGluA2 AMPA receptors it was 37 ± 3%. Moreover, the “effect on glycine-gated currents” value on RatGluD2^Lc^-9x is reported as “inhibited”.
As for `NS(=O)(=O)c1cccc2c1c([N+](=O)[O-])cc1nc(O)c(O)nc12` [NBQX], on RatGluD2^Lc, the “inhibition of constitutive currents” value amounted to 9 ± 0.2%. Further, at AcaGluD (100 μM), the “currents elicited when applied alone” value is recorded as “elicited no currents” and the “inhibition of GABA-gated current” value was 61 ± 3%. Moreover, the “enhancement of glutamate-gated currents” value at AcaGluD (100 μM, n = 5) was 34 ± 3%. In addition, the “effect on oocytes expressing WT RatGluD2” value on WT RatGluD2 was “no effect”.
The like results for `O=[N+]([O-])c1cc2nc(O)c(O)nc2cc1[N+](=O)[O-]` [DNQX] were, in that order, 11 ± 0.2%, “elicited no currents”, 53 ± 3%, 34 ± 3% and “no effect”.
In the case of Concanavalin A, the “increase in activity (GABA-gated current) after treatment” value with S713A AcaGluD, with R721K AcaGluD and in the assay with F640Y AcaGluD was over 100 fold each time. In the assay on D825P AcaGluD, the “increase in current amplitude after treatment” value is on record as “fourfold increase”.
